PMC6917776, “Discovery of a chemical probe for PRDM9” (Nature Communications, 2019)
Several values for one entry are separate records, joined by “and”; a condition that tells them apart may be missing. Equal values may be shown once. Read-outs that look alike come from different tables or passages of the source.

Tests used:
[1] = target: T1, PRDM9 (amino acids: 195–415) (Homo sapiens, UniProt Q9NQV7); test: PRDM9 methyltransferase activity assay (3H-SAM scintillation proximity assay); format: biochemical; conditions: 100 µM compound
T1 construct: PRDM9 (amino acids: 195–415)
T1 sequence (Q9NQV7 195-415): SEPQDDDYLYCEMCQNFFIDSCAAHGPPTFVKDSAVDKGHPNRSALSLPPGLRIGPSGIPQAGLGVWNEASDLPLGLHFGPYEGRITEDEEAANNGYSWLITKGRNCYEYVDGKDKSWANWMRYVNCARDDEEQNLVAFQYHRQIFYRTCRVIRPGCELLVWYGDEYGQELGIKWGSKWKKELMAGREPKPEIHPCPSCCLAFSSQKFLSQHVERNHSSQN

PRDM9 [2] = target: T2, PRDM9 (Homo sapiens, UniProt Q9NQV7); test: MOA determination: IC50 at varying SAM or peptide concentrations (SPA); format: biochemical
T2 construct: PRDM9 (amino acids: 195–415)
T2 sequence (Q9NQV7 195-415): T1 sequence (Q9NQV7 195-415)
Text: Reactions (in quadruplicates) were initiated by adding SAM and followed by measuring the methyltransferase activity using SPA assay. The determined IC50 values were fitted against the corresponding substrate concentrations. An increase in IC50 values when concentration of peptide was increased indicated a peptide-competitive pattern of inhibition.

PRDM9 [3] = target: PRDM9 (Homo sapiens, UniProt Q9NQV7); test: DSF thermal stabilisation, PRDM selectivity and titration; format: binding
Method: DSF measurements were performed as previously described[21] using a Light Cycler 480 II instrument from Roche Applied Science. […] Sypro Orange was purchased from Invitrogen as a 5000 × stock solution (concentration not specified by vendor) and was diluted 1:1000 to yield a 5 × working concentration. The temperature scan curves were fitted to a Boltzmann sigmoid function, and the Tm values were obtained from the midpoint of the transition.
Target sequence in this assay (Q9NQV7 whole entry): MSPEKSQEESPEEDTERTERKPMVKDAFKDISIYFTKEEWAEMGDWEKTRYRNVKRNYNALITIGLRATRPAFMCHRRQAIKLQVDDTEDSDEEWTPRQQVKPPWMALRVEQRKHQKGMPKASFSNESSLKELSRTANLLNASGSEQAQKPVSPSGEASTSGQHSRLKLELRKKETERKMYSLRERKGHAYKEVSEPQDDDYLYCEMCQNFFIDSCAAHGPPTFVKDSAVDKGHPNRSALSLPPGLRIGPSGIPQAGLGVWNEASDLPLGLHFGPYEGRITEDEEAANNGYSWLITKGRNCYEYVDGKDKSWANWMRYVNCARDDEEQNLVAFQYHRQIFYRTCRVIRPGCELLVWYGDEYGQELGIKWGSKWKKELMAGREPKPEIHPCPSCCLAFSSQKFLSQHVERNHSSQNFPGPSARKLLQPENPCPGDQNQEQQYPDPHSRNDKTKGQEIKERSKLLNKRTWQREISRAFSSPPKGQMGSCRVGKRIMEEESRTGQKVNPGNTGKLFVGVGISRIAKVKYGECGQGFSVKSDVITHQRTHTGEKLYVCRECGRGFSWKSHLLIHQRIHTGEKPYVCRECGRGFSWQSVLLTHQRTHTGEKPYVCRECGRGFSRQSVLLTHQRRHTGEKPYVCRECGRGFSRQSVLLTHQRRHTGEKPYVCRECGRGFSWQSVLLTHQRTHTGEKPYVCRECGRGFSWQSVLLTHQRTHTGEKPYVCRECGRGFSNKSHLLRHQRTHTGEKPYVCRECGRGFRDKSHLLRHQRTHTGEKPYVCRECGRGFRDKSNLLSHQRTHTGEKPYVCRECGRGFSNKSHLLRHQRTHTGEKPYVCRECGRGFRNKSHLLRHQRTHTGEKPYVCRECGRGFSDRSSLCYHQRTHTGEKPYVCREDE

[4] = MRK-740 0.244141 uM, in the absence of SAM
[5] = MRK-740 0.244141 uM, in the presence of 2 mM of SAM
[6] = MRK-740 0.488281 uM, in the absence of SAM
[7] = MRK-740 0.488281 uM, in the presence of 2 mM of SAM
[8] = MRK-740 0.976563 uM, in the absence of SAM
[9] = MRK-740 0.976563 uM, in the presence of 2 mM of SAM
[10] = MRK-740 1.95312 uM, in the absence of SAM
[11] = MRK-740 1.95312 uM, in the presence of 2 mM of SAM
[12] = MRK-740 3.90625 uM, in the absence of SAM
[13] = MRK-740 3.90625 uM, in the presence of 2 mM of SAM
[14] = MRK-740 7.8125 uM, in the absence of SAM
[15] = MRK-740 7.8125 uM, in the presence of 2 mM of SAM
[16] = MRK-740 15.625 uM, in the absence of SAM
[17] = MRK-740 15.625 uM, in the presence of 2 mM of SAM
[18] = MRK-740 31.25 uM, in the absence of SAM
[19] = MRK-740 31.25 uM, in the presence of 2 mM of SAM
[20] = MRK-740 62.5 uM, in the absence of SAM
[21] = MRK-740 62.5 uM, in the presence of 2 mM of SAM
[22] = MRK-740 125 uM, in the absence of SAM
[23] = MRK-740 125 uM, in the presence of 2 mM of SAM
[24] = MRK-740 250 uM, in the absence of SAM
[25] = MRK-740 250 uM, in the presence of 2 mM of SAM
[26] = MRK-740 500 uM, in the absence of SAM
[27] = MRK-740 500 uM, in the presence of 2 mM of SAM

## COc1cc(OC)cc(-c2noc(N3CCN(C)C4(CCN(c5ccccc5)CC4)C3)n2)c1 [MRK-740-NC]
[1]
  PRDM9-Activity %, single experiments: 82.7625% and 75.9398%

## COc1cc(OC)cc(-c2noc(N3CCN(C)C4(CCN(c5ccnc(C)c5)CC4)C3)n2)c1 [MRK-740]
PRDM9 [2]; 20 µM peptide, SAM 22 to 350 µM
  Pattern of PRDM9 inhibition with respect to SAM: uncompetitive pattern
PRDM9 [2]; 20 µM peptide, varying SAM, read-out: Ki, estimated from asymptote of Fig 2d
  Ki: ~160 nM
PRDM9 [2]; 350 µM SAM, peptide 1.25 to 20 µM
  Pattern of PRDM9 inhibition with respect to peptide (H3 1–25) substrate: competitive pattern of PRDM9 inhibition
PRDM9 [2]; 350 µM SAM, varying H3 1–25 peptide, read-out: Ki, calculated from Y intercept of Fig. 2e
  Ki: 65 ± 6 nM
PRDM9 [2]; [H3 1-25]/Km 1.25, Figure 2e, average of replicates, read-out: Average IC50
  IC50: 0.0749 µM
PRDM9 [2]; [H3 1-25]/Km 1.25, Figure 2e, read-out: IC50 (µM), replicates
  IC50: 0.0747 µM and 0.0785 µM and 0.0703 µM and 0.0762 µM
PRDM9 [2]; [H3 1-25]/Km 2.5, Figure 2e, average of replicates, read-out: Average IC50
  IC50: 0.0926 µM
PRDM9 [2]; [H3 1-25]/Km 2.5, Figure 2e, read-out: IC50 (µM), replicates
  IC50: 0.0843 µM and 0.0895 µM and 0.0878 µM and 0.109 µM
PRDM9 [2]; [H3 1-25]/Km 5, Figure 2e, average of replicates, read-out: Average IC50
  IC50: 0.125 µM
PRDM9 [2]; [H3 1-25]/Km 5, Figure 2e, read-out: IC50 (µM), replicates
  IC50: 0.129 µM and 0.102 µM and 0.118 µM and 0.151 µM
PRDM9 [2]; [H3 1-25]/Km 10, Figure 2e, average of replicates, read-out: Average IC50
  IC50: 0.169 µM
PRDM9 [2]; [H3 1-25]/Km 10, Figure 2e, read-out: IC50 (µM), replicates
  IC50: 0.138 µM and 0.151 µM and 0.173 µM and 0.215 µM
PRDM9 [2]; [H3 1-25]/Km 20, Figure 2e, average of replicates, read-out: Average IC50
  IC50: 0.254 µM
PRDM9 [2]; [H3 1-25]/Km 20, Figure 2e, read-out: IC50 (µM), replicates
  IC50: 0.228 µM and 0.278 µM and 0.257 µM
PRDM9 [2]; [SAM]/Km 0.18, Figure 2d, average of replicates, read-out: Average IC50
  IC50: 0.893 µM
PRDM9 [2]; [SAM]/Km 0.18, Figure 2d, read-out: IC50 (µM), replicates
  IC50: 0.838 µM and 0.633 µM and 1.03 µM and 1.07 µM
PRDM9 [2]; [SAM]/Km 0.36, Figure 2d, average of replicates, read-out: Average IC50
  IC50: 0.704 µM
PRDM9 [2]; [SAM]/Km 0.36, Figure 2d, read-out: IC50 (µM), replicates
  IC50: 0.519 µM and 0.651 µM and 0.615 µM and 1.03 µM
PRDM9 [2]; [SAM]/Km 0.73, Figure 2d, average of replicates, read-out: Average IC50
  IC50: 0.374 µM
PRDM9 [2]; [SAM]/Km 0.73, Figure 2d, read-out: IC50 (µM), replicates
  IC50: 0.349 µM and 0.395 µM and 0.369 µM and 0.382 µM
PRDM9 [2]; [SAM]/Km 1.46, Figure 2d, average of replicates, read-out: Average IC50
  IC50: 0.275 µM
PRDM9 [2]; [SAM]/Km 1.46, Figure 2d, read-out: IC50 (µM), replicates
  IC50: 0.27 µM and 0.288 µM and 0.249 µM and 0.292 µM
PRDM9 [2]; [SAM]/Km 2.92, Figure 2d, average of replicates, read-out: Average IC50
  IC50: 0.21 µM
PRDM9 [2]; [SAM]/Km 2.92, Figure 2d, read-out: IC50 (µM), replicates
  IC50: 0.18 µM and 0.228 µM and 0.197 µM and 0.236 µM
PRDM9 [2]; increasing SAH in parallel to SAM
  Effect of SAH on PRDM9 inhibition by MRK-740, compared with SAM: did not have the same effect
PRDM9 [3]; [4]
  ∆Tm, Average (n=3): -0.02041 ⁰C
  ∆Tm, replicates: 0.1071 ⁰C and -0.1796 ⁰C and 0.01126 ⁰C
PRDM9 [3]; [5]
  ∆Tm, Average (n=3): 0.008307 ⁰C
  ∆Tm, replicates: 0.03434 ⁰C and -0.02437 ⁰C and 0.01495 ⁰C
PRDM9 [3]; [6]
  ∆Tm, Average (n=3): 0.01061 ⁰C
  ∆Tm, replicates: 0.0928 ⁰C and -0.07107 ⁰C and 0.01011 ⁰C
PRDM9 [3]; [7]
  ∆Tm, Average (n=3): 0.1496 ⁰C
  ∆Tm, replicates: 0.1732 ⁰C and 0.04052 ⁰C and 0.2352 ⁰C
PRDM9 [3]; [8]
  ∆Tm, Average (n=3): 0.04508 ⁰C
  ∆Tm, replicates: 0.1528 ⁰C and -0.2157 ⁰C and 0.1982 ⁰C
PRDM9 [3]; [9]
  ∆Tm, Average (n=3): 0.2255 ⁰C
  ∆Tm, replicates: 0.2233 ⁰C and 0.03455 ⁰C and 0.4187 ⁰C
PRDM9 [3]; [10]
  ∆Tm, Average (n=3): -0.08242 ⁰C
  ∆Tm, replicates: -0.00371 ⁰C and -0.4167 ⁰C and 0.1731 ⁰C
PRDM9 [3]; [11]
  ∆Tm, Average (n=3): 0.4191 ⁰C
  ∆Tm, replicates: 0.4623 ⁰C and 0.3242 ⁰C and 0.4707 ⁰C
PRDM9 [3]; [12]
  ∆Tm, Average (n=3): -0.01426 ⁰C
  ∆Tm, replicates: 0.02232 ⁰C and -0.1544 ⁰C and 0.08926 ⁰C
PRDM9 [3]; [13]
  ∆Tm, Average (n=3): 0.7764 ⁰C
  ∆Tm, replicates: 0.7056 ⁰C and 0.7972 ⁰C and 0.8264 ⁰C
PRDM9 [3]; [14]
  ∆Tm, Average (n=3): 0.1037 ⁰C
  ∆Tm, replicates: 0.226 ⁰C and -0.09012 ⁰C and 0.1752 ⁰C
PRDM9 [3]; [15]
  ∆Tm, Average (n=3): 1.337 ⁰C
  ∆Tm, replicates: 1.344 ⁰C and 1.221 ⁰C and 1.444 ⁰C
PRDM9 [3]; [16]
  ∆Tm, Average (n=3): -0.1063 ⁰C
  ∆Tm, replicates: -0.01797 ⁰C and -0.3914 ⁰C and 0.09041 ⁰C
PRDM9 [3]; [17]
  ∆Tm, Average (n=3): 1.956 ⁰C
  ∆Tm, replicates: 2.017 ⁰C and 1.819 ⁰C and 2.032 ⁰C
PRDM9 [3]; [18]
  ∆Tm, Average (n=3): 0.1387 ⁰C
  ∆Tm, replicates: 0.3126 ⁰C and 0.00612 ⁰C and 0.09739 ⁰C
PRDM9 [3]; [19]
  ∆Tm, Average (n=3): 2.652 ⁰C
  ∆Tm, replicates: 2.731 ⁰C and 2.527 ⁰C and 2.698 ⁰C
PRDM9 [3]; [20]
  ∆Tm, Average (n=3): 0.1127 ⁰C
  ∆Tm, replicates: 0.2122 ⁰C and -0.02556 ⁰C and 0.1514 ⁰C
PRDM9 [3]; [21]
  ∆Tm, Average (n=3): 3.593 ⁰C
  ∆Tm, replicates: 3.459 ⁰C and 3.608 ⁰C and 3.713 ⁰C
PRDM9 [3]; [22]
  ∆Tm, Average (n=3): 0.3345 ⁰C
  ∆Tm, replicates: 0.254 ⁰C and 0.2924 ⁰C and 0.4572 ⁰C
PRDM9 [3]; [23]
  ∆Tm, Average (n=3): 4.481 ⁰C
  ∆Tm, replicates: 4.418 ⁰C and 4.4008 ⁰C and 4.624 ⁰C
PRDM9 [3]; [24]
  ∆Tm, Average (n=3): 0.7417 ⁰C
  ∆Tm, replicates: 0.7489 ⁰C and 0.7435 ⁰C and 0.7328 ⁰C
PRDM9 [3]; [25]
  ∆Tm, Average (n=3): 5.104 ⁰C
  ∆Tm, replicates: 5.051 ⁰C and 5.067 ⁰C and 5.196 ⁰C
PRDM9 [3]; [26]
  ∆Tm, Average (n=3): 1.354 ⁰C
  ∆Tm, replicates: 1.288 ⁰C and 1.351 ⁰C and 1.422 ⁰C
PRDM9 [3]; [27]
  ∆Tm, Average (n=3): 5.9348 ⁰C
  ∆Tm, replicates: 5.8495 ⁰C and 5.999 ⁰C and 5.956 ⁰C
